From article PMC5712521, “Dendrogenin A drives LXR to trigger lethal autophagy in cancers” (Nature Communications, 2017)

Columns and labels:
B16F10 cells = experiment: Sterol analysis by GC/MS; format: cell-based, mouse; details: B16F10, 24 h, 10 µM 22(R)HC, 1 µM GW, 100 nM TO
Method: Sterols in cell homogenates were extracted with a solvent mixture containing chloroform/methanol 2/1 (v/v) spiked with epicoprostanol as the internal standard. Lipids were partitioned in chloroform after the addition of saline and saponified by methanolic potassium hydroxide (0.5 N, 60 °C, 15 min). The fatty acids released were methylated with BF3-methanol (12%, 60 °C, 15 min) to not interfere with the chromatography of sterols. The sterols were re-extracted in hexane and silylated, as described previously. The trimethylsilylether derivatives of the sterols were separated by gas chromatography (GC) (Hewlett–Packard 6890 series) in a medium polarity capillary column RTX-65, (65% diphenyl 35% dimethyl polysiloxane, length 30 m, diameter 0.32 mm, film thickness 0.25 μm (Restesk, Evry, France)). The mass spectrometer (Agilent 5975 inert XL) in series with the GC was set up for the detection of positive ions. Ions were produced in the electron impact mode at 70 eV. Sterols were identified by the fragmentogram in the scanning mode and quantified by selective monitoring of the specific ions after normalization with the internal standard epicoprostanol and calibration with weighed standards. […]
Anal yses were perform ed by GC/MS. f Quantification of sterols accumulated in
m elanom a cells after 24 h treatm ent with 10 µM 22(R) HC, 1 µ M GW , 100 nM T O or solvent
vehicle. […]

[1] = test system: RXRγ, FXR, SXR, PPARα, PPARγ, RARα, AHR, VDR, GR, PR, AR, ERα, ERβ; experiment: Gene reporter luciferase assays on other nuclear receptors; format: cell-based, human; details: 2.5 µM DDA, 8 h, with or without cognate agonist
Source text: HEK293T were used for luciferase assays. Cells were transfected using the PolyEthylenImine (PEI) method with human retinoid-X receptor (RXRγ) and human liver-X-receptors (LXRα or LXRβ) with LXRE-Luc; RXRγ and human farnesoid X receptor (FXR) with EcRE-Luc; RXRγ and human steroid and xenobiotic X receptor (SXR) with DR4-Luc; RXRγ and human peroxisome proliferator activated receptors (PPARα, or PPARγ) with PPRE-Luc; RXRγ and human retinoic acid receptor (RARα) with DR1-Luc; human AHR and human ARNT with a DRE-Luc; human vitamin D receptor (VDR) with VDRE-Luc. Cells were transfected with plasmids encoding human glucocorticoid receptor (GR), progesterone receptor (PR), or androgen receptor (AR) with MMTV-Luc; or estrogen receptors (ERα and ERβ) with an ERE-Luc. The day after transfection with the luciferase reporter gene construct, cells were seeded in 12-well plates (50,000 cells per well). […] Luciferase activity was measured using the luciferase assay reagent (Promega), according to the manufacturer’s instructions. Protein concentrations were measured using the Bradford method to normalize luciferase activities. For each condition, luciferase activity was calculated from the data of three independent wells. […]

| SMILES | Sterol amount/total sterol: 8-DHC (B16F10 cells) | Sterol amount/total sterol: zymostenol (B16F10 cells) | agonistic or antagonistic transcriptional activity on other NRs [1] |
| --- | --- | --- | --- |
| CC(C)CC[C@@H](O)[C@@H](C)[C@H]1CC[C@H]2[C@@H]3CC=C4C[C@@H](O)CC[C@]4(C)[C@H]3CC[C@]12C [22(R)HC, 22(R)-hydroxycholesterol] | 0.08± 0.006 | 0.24± 0.08 |  |
| CC(C)CCC[C@@H](C)[C@H]1CC[C@H]2[C@@H]3C[C@@H](NCCc4cnc[nH]4)[C@@]4(O)C[C@@H](O)CC[C@]4(C)[C@H]3CC[C@]12C [DDA, Dendrogenin A] |  |  | did not show any agonistic or antagonistic transcriptional activity |
| O=C(O)Cc1cccc(OCCCN(Cc2cccc(C(F)(F)F)c2Cl)CC(c2ccccc2)c2ccccc2)c1 [GW, GW3965] | 0.05± 0.005 | 0.11 ± 0.08 |  |
| O=S(=O)(c1ccccc1)N(CC(F)(F)F)c1ccc(C(O)(C(F)(F)F)C(F)(F)F)cc1 [TO, TO901317] | 0.04± 0.005 | 0.12± 0.09 |  |
